Experimental data published in US6521620B1, “Bicyclic compounds capable of inhibiting tyrosine kinases of the epidermal growth factor receptor family” (Warner-Lambert Company, priority 1994, dated 2003).
Like-named read-outs stand apart in the source and are kept apart here.

How the values were obtained:
[1] = target: T1, Human EGF receptor tyrosine kinase (Homo sapiens, UniProt P00533); experiment: EGF receptor tyrosine kinase inhibition (phosphorylation of PLC-gamma 1 derived peptide); type: biochemical
T1 construct: isolated from A431 human epidermoid carcinoma cells which overexpress EGF receptor; endogenous in cells; host or cells: A431 human epidermoid carcinoma cells; purified from the lysate on wheat germ agglutinin sepharose
T1 sequence (P00533 25-1210): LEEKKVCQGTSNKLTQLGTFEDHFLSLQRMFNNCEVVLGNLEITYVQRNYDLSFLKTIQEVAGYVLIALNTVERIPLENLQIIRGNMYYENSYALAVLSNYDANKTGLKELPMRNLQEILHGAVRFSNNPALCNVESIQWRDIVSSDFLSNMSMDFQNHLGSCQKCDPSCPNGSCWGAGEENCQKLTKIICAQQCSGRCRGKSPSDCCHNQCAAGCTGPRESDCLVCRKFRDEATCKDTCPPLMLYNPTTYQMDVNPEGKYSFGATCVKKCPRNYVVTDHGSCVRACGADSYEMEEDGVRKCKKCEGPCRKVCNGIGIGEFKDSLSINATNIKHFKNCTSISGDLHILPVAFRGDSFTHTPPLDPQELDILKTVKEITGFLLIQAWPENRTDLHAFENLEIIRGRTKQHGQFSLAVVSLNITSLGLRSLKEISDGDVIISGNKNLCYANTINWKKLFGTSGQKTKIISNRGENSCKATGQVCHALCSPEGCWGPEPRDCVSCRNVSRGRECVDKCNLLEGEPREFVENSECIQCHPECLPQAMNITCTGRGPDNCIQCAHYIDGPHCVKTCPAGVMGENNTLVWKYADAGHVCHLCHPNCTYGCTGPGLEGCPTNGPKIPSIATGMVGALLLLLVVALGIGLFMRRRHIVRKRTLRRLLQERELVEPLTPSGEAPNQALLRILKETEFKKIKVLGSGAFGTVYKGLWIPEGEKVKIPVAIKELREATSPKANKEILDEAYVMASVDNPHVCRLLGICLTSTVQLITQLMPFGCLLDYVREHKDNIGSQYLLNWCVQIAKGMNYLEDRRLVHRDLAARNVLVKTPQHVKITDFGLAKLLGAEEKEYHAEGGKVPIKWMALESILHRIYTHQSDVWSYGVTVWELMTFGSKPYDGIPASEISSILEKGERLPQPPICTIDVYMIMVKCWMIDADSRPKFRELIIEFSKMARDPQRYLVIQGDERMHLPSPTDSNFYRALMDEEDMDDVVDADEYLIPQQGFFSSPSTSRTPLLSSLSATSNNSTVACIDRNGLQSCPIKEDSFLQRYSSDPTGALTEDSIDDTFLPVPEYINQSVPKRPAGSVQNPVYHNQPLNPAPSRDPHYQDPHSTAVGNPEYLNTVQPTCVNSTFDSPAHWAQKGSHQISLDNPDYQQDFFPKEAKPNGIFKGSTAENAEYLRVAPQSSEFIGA
Description: Purification of Epidermal Growth Factor Receptor Tyrosine Kinase—Human EGF receptor tyrosine kinase was isolated from A431 human epidermoid carcinoma cells which overexpress EGF receptor by the following methods. Cells were grown in roller bottles in 50% Delbuco's Modified Eagle and 50% HAM F-12 nutrient media (Gibco) containing 10% fetal calf serum. Approximately 10^9 cells were lysed in two volumes of buffer containing 20 mM 2-(4N-[2-hydroxyethyl]piperazin-1-yl)ethanesulfonic acid (hepes), pH 7.4, 5 mM ethylene glycol bis(2-aminoethyl ether) N,N,N′,N′-tetraacetic acid, 1% Triton X-100, 10% glycerol, 0.1 mM sodium orthovanadate, 5 mM sodium fluoride, 4 mM pyrophosphate, 4 mM benzamide, 1 mM dithiothreitol, 80 μg/mL aprotinin, 40 μg/mL leupeptin and 1 mM phenylmethylsulfonyl fluoride. After centrifugation at 25,000×g for 10 minutes, the supernatant was equilibrated for 2 h at 4° C. with 10 mL of wheat germ agglutinin sepharose that was previously equilibrated with 50 mM Hepes, […], 0.1% Triton X-100 and 150 mM NaCl, pH 7.5, (equilibration buffer). Contaminating proteins were washed from the resin with 1 M NaCl in equilibration buffer, and the enzyme was eluted with 0.5 M N-acetyl-1-D-glucosamine in equilibration buffer, followed by 1 mM urea. The enzyme was eluted with 0.1 mg/ml EGF.
The reaction was terminated by the addition of 2 mL of […] phosphoric acid and passed through a 2.5 cm phosphocellulose filter disc to bind the peptide. The filter was washed five times with 75 mM phosphoric acid and placed in a vial along with 5 mL of scintillation fluid (Ready gel Beckman).

EGF receptor = target: T2, EGF receptor (Homo sapiens, UniProt P00533); experiment: Inhibition of EGF-induced autophosphorylation in A431 epidermoid carcinoma cells; type: cell-based
T2 construct: EGF receptor autophosphorylation in A431 human epidermoid carcinoma; endogenous in cells; host or cells: A431 human epidermoid carcinoma cells (ATCC)
T2 sequence (P00533 25-1210): as above
Description: (§1) Cells were grown to 100% confluency in 100 mm Petrie dishes (Corning). After the cells were treated for 5 minutes with either EGF (epidermal growth factor), PDGF, or bFGF (basic fibroblast growth factor) (20 ng/ml) or 1 ml of conditioned media from MDA-MB-231 cells, the media was removed and the monolayer scraped into 1 ml of ice cold lysis buffer (50 mM Hepes, pH 7.5, 150 mM NaCl, 10% glycerol, 1% triton X-100, 1 mM EDTA, 1 mM EGTA, 10 mM sodium pyrophosphate, 30 mM p-nitrophenyl phosphate, 1 mM orthovanadate, 50 mM sodium fluoride, 1 mM phenylmethylsulfonylfluoride, 10 μg/ml of aprotinin, and 10 μg/ml of leupeptin). The lysate was transferred to a microfuge tube (small centrifuge that holds 1-2 ml plastic centrifuge tubes), allowed to sit on ice 15 minutes and centrifuged 5 minutes at 10,000×g. The supernatant was transferred to a clean microfuge tube and 5 μg of antibody was added to designated samples. The tubes were rotated for 2 hours at […] after which 25 μl of protein A sepharose was added and then rotation continued for at least 2 more hours. The protein A separose was washed 5 times with 50 mM Hepes, pH 7.5, 150 mM NaCl, 10% glycerol and 0.02% sodium azide. […] The extract were transferred to a microfuge tube and heated to 100° C. for 5 minutes. […] Proteins in the gel were electrophoretically transferred to nitrocellulose and the membrane was washed once in 10 mM Tris buffer, pH 7.2, 150 mM NaCl, 0.01% Azide (TNA) and blocked overnight in TNA containing 5% bovine serum albumin and 1% ovalbumin (blocking buffer). The membrane was blotted for 2 hours with the primary antibody (1 μg/ml in blocking buffer) and then washed 2 times sequentially in TNA, TNA containing 0.05% Tween-20 and 0.05% Nonidet P-40 (commercially available detergent) and TNA.

erbB-2, 3, 4 = experiment: Inhibition of conditioned media-induced autophosphorylation in SK-BR-3 breast tumor cells; type: cell-based, human; settings: SK-BR-3 cells, read-out: SKBR-3 IC50
Description: as §1

[2] = tested on: NIH 3T3 mouse fibroblast line, transfected with the human EGFR gene; experiment: Morphology of EGF-treated NIH 3T3 fibroblasts transfected with the human EGFR gene; type: cell-based; settings: 100 ng/mL of EGF and 5 μm of compound (FIG. 17)
Description: FIG. 15 is a photograph of an NIH 3T3 mouse fibroblast line, transfected with the human EGFR gene showing a normal flattened morphology;
FIG. 16 is a photograph of the same cell line treated with 100 ng/mL of EGF showing a typical spindly transformed morphology; and […]

c-jun mRNA = experiment: Growth factor dependent expression of c-jun mRNA in Swiss 3T3 (Northern blot); type: cell-based, mouse; settings: Swiss 3T3 cells, EGF-stimulated (FIG. 7)
Description: Total cellular RNA was isolated from untreated control or treated Swiss 3T3 cells using RNAzol-B (trademark of Tel Test Inc. for a kit used to isolate RNA from tissues) and adhered to the protocol described by the manufacturer. Forty to fifty μg of RNA was loaded onto a 1% agarose gel and electrophoresis carried out for 3-4 hours at 65 volts. The RNA in the gel was transferred by capillary action to a nylon membrane (Hybond-N, Amersham). The 40 mer c-jun probe was end labeled with [^32p]ATP using […] (Promega) and purified on a G25 sephadex column according to the procedure recommended by the supplier, Oncogene Science. Hybridization was performed overnight at 65° C. (c-jun is an immediate early transcription factor; it is one of the components of AP-1 while FOS is the second component of AP-1.
Gel of Example 40 (FIG. 7) detects mRNA-for c-jun by hybridization with a specific radiolabelled RNA probe for c-jun.

p39^c-jun = experiment: Growth factor mediated expression of p39 c-jun in Swiss 3T3 (Western blot); type: cell-based, mouse
Description: Monoclonal antibodies raised to the PDGF ([…]) receptor or phosphotyrosine were from Upstate Biotechnology, Inc., Lake Placid, N.Y. Anti-pp39^jun (antibody to the transcription factor c-jun, which is a 39 kDalton phosphoprotein) and anti-EGF receptor antibodies were from Oncogene Science, Uniondale, N.Y.
Cells were grown to 100% confluency in 100 mm Petrie dishes (Corning). After the cells were treated for 5 minutes with either EGF (epidermal growth factor), PDGF, or bFGF (basic fibroblast growth factor) (20 ng/ml) or 1 ml of conditioned media from MDA-MB-231 cells, the media was removed and the monolayer scraped into 1 ml of ice cold lysis buffer (50 mM Hepes, pH 7.5, 150 mM NaCl, 10% glycerol, 1% triton X-100, 1 mM EDTA, 1 mM EGTA, 10 mM sodium pyrophosphate, 30 mM p-nitrophenyl phosphate, 1 mM orthovanadate, 50 mM sodium fluoride, 1 mM phenylmethylsulfonylfluoride, 10 μg/ml of aprotinin, and 10 μg/ml of leupeptin). The lysate was transferred to a microfuge tube (small centrifuge that holds 1-2 ml plastic centrifuge tubes), allowed to sit on ice 15 minutes and centrifuged 5 minutes at 10,000×g. The supernatant was transferred to a clean microfuge tube and 5 μg of antibody was added to designated samples. The tubes were rotated for 2 hours at […] after which 25 μl of protein A sepharose was added and then rotation continued for at least 2 more hours. The protein A separose was washed 5 times with 50 mM Hepes, pH 7.5, 150 mM NaCl, 10% glycerol and 0.02% sodium azide. The precipitates were resuspended with 30 μl of Laemlli buffer (Laemmli, […], pp. 680-685, 1970), heated to 100° C. for 5 minutes and centrifuged to obtain the supernatant. Whole cell extracts were made by scraping cells grown in the wells of 6 well plates into 0.2 ml of boiling Laemmli buffer. The extract were transferred to a microfuge tube and heated to 100° C. for 5 minutes. […]

[3] = Table 1, values in nM, read-out: EGF Receptor Tyrosine Kinase Inhibition IC50

IC50 [1, 3] [nM] | IC50 ([1]; enzyme value repeated in the autophosphorylation table, read-out: EGFR IC50) [nM] | IC50 (EGF receptor) [nM] | IC50 (erbB-2, 3, 4) [nM] | SMILES | cell morphology [2] | c-jun mRNA production (c-jun mRNA) | c-jun expression (p39 c-jun protein) (p39^c-jun; Swiss 3T3, stimulated by EGF (FIG. 8)) | c-jun expression (p39 c-jun protein) (p39^c-jun; Swiss 3T3, stimulated by PDGF (FIG. 8)) | c-jun expression (p39 c-jun protein) (p39^c-jun; Swiss 3T3, stimulated by b-FGF (FIG. 8))
10 | 10 | 110 | ~800 | Nc1cc2ncnc(Nc3cccc(Br)c3)c2cn1 [Example 27, 7-Amino-4-(3-bromoanilino)pyrido[4,3-d]pyrimidine] | morphology reverted from the transformed type back to the normal type | – | – | – | –
578 | – | – | – | Nc1cc2ncnc(NCc3ccccc3)c2cn1 [Example 40, 7-Amino-4-benzylaminopyrido[4 3-d]pyrimidine] | – | blocks this production for EGF-stimulated cells | block c-jun expression | not when stimulated by PDGF or b-FGF | not when stimulated by PDGF or b-FGF
